Earlier results as cited in patent US20200040275A1, “AVIATION FUEL WITH A RENEWABLE OXYGENATE” (Swift Fuels, LLC, priority 2014, published 2020).

Key:
[1] = SDS data from third-party compliance reports

Cc1cccc(N)c1 [m-Toluidine]
OSHA Hazards [1]: Toxic. Causes cyanosis.

CC(C)c1ccc(N)cc1 (single isomer, unassigned) [Cumidine, 4-isopropylaniline]
OSHA Hazards [1]: Irritant. Causes respiratory
LD50 (rat, oral) (rat): 757 mg/kg

CCOC(C)(C)C [ETBE, ethyl tert-butyl ether]
OSHA Hazards [1]: Irritant
water solubility: 1.2 g/100 g
